Results reported in US5049550A, “Diadenosine 5', 5'"-p^1, p^4,-tetraphosphate analogs as antithrombotic agents” (Worcester Foundation for Experimental Biology, priority 1988, dated 1991).
pKi: −log10 of the molar value.

Experiments:
[1] = system: ADP-induced platelet aggregation; test: Kinetics of ADP-induced platelet aggregation (double-reciprocal plot); type: cell-based; conditions: FIG. 6
Experimental: Changes in light transmission reflecting the velocity of ADP-induced platelet aggregability was determined using a platelet aggregometer. Born, G.V.P., Nature 184:927-929 (1962). […] The Y points on the X-intercept are altered by factors [formula] where I is the concentration of inhibitor, and Ki is a characteristic constant. Points on the X-intercept are given by the expression [formula] intercept when [I]=0. When [I] is known, the equation can be solved for Ki.

[2] = Assay of blood AP4 A and ATP before and after AP4 A infusion in rabbits (in vivo); design: species or system rabbit
Experimental: Male, New Zealand white rabbits, weighing 2-2.5 kg., were anesthetized with ketamine hydrochloride (100 mg/kg intramuscularly). AP4 A (Boehringer (100 Mannheim Biochemicals, Indianapolis, Ind.), or saline control was infused via a marginal ear vein. A segment of the left common carotid artery was isolated by vascular clamps. A 1 cm. length of polyethylene tubing (PE-90, Clay Adams, Parsippany, N.Y.) was inserted, secured by silk ligatures, and the blood flow re-established by removing the clamps. Blood was sampled from the right carotid artery for assays of AP4 A and ATP, and for platelet aggregation studies.
After preliminary trials, a standard AP4 A infusion protocol was established as follows: A dose of AP4 A at 50 mg/kg was reconstituted in 10 ml of normal saline and infused by pump at a uniform rate over two hours. Control rabbits received 10 ml of saline alone. The intracarotid cannula was inserted, and the re-establishment of blood flow timed at 15 minutes into the infusion. Upon the completion of infusion at 2 hours, the intracarotid tubing was removed, and its contents flushed out into a petri dish. The presence of a clot or of liquid blood contents was noted.
Blood samples were collected from the carotid artery through a catheter before and after (0, 10, 20, 40, and 60 minutes) infusion of AP4 A. Blood was anticoagulated by mixing with 0.15 volume of acid-citrate-dextrose solution. An aliquot of blood collected at the end of AP4 A infusion (to sample) was incubated at 37° C. and sampled at 10, 20, 40, and 60 minutes to evaluate the in vitro decay of AP4 A. Blood samples of […] 3% perchloric acid and kept at 0° C. for 30 minutes with intermittent vortexing. The acid soluble fraction was recovered by centrifugation at 1000 g for 10 minutes and neutralized by 5M K2 CO3. It was then kept at -80° C. until assay of the nucleotides. The AP4 A assay was performed by coupling the phosphodiesterase and luciferase reactions in a luminometer (Model 6100 Picolite, Packard, Downers Grove, Ill.). The detailed method of AP4 A and ATP assays has been reported elsewhere (Kim, B. K., Chao, F. C., Leavitt, R., Fauci, A. S., Meyers, K. M. and Zamecnik, P. C. Blood, 66:735-737, 1985).
The disappearance of infused AP4 A in the circulation and in incubated blood was studied in 2 rabbits. Mean values of hemoglobin, hematocrit and platelet count were 10.1 g/dl, 30.8% and 362,000/ul respectively. The blood content of AP4 A in the rabbits was 51 nmol/1 blood prior to infusion. […] Kim, B. K. et al., Blood, 66:735-737 (1985); Flodgaard, H., Zamecnik, P. C. Meyers, K. and Klenow, H., Thrombosis Research, 37:345-351 (1986). […] A very rapid disappearance of infused AP4 A was observed, with complete clearance within 10 minutes after infusion. When blood samples obtained at the end of AP4 A infusion were incubated at 37° C., only 15-fold and 4-fold levels of AP4 A, as compared to baseline could be detected after 10 minutes and 20 minutes respectively.

[3] = in vivo, before infusion of AP4 A

Nc1ncnc2c1ncn2[C@@H]1O[C@H](COP(=O)(O)OP(=O)(O)OP(=O)(O)OP(=O)(O)OC[C@H]2O[C@@H](n3cnc4c(N)ncnc43)[C@H](O)[C@@H]2O)[C@@H](O)[C@H]1O [AP4 A, diadenosine 5',5'"-p^1,p^4 -tetraphosphate]
pKi ([1]; competitive inhibition of ADP-induced aggregation): 4.77 | type / relative strength of inhibition ([1]; double reciprocal plot): competitive inhibition | level of ATP after AP4 A infusion ([2]; an initial increment and a late increment): bimodal increments | increase of blood AP4 A at the end of infusion ([2]; end of infusion): 125 fold of baseline | concentration ([2]; end of infusion, 50 mg/kg): 6.4 µM | half-life in rabbit blood ([2]; in vivo and ex vivo): short half-life | ATP, umol/l blood ([2]; in vivo, 0 min after infusion of AP4 A (50 mg/kg over 2 h)): 579.0 umol/l blood | ATP, umol/l blood ([2]; in vivo, 10 min after infusion of AP4 A (50 mg/kg over 2 h)): 573.5 umol/l blood | ATP, umol/l blood ([2]; in vivo, 20 min after infusion of AP4 A (50 mg/kg over 2 h)): 564.0 umol/l blood | ATP, umol/l blood ([2]; in vivo, 40 min after infusion of AP4 A (50 mg/kg over 2 h)): 562.0 umol/l blood | ATP, umol/l blood ([2]; in vivo, 60 min after infusion of AP4 A (50 mg/kg over 2 h)): 629.5 umol/l blood | AP4 A, umol/l blood [2, 3]: 0.051 umol/l blood | ATP, umol/l blood [2, 3]: 522.9 umol/l blood | concentration at 0 h ([2]; rabbit, blood, iv, in vivo, 0 min after infusion (50 mg/kg over 2 h), read-out: AP4 A, umol/l blood): 6.41 µmol/L | concentration at 10 min ([2]; rabbit, blood, iv, in vivo, 10 min after infusion (50 mg/kg over 2 h), read-out: AP4 A, umol/l blood): 0.043 µmol/L | concentration at 20 min ([2]; rabbit, blood, iv, in vivo, 20 min after infusion (50 mg/kg over 2 h), read-out: AP4 A, umol/l blood): 0.045 µmol/L | concentration at 40 min ([2]; rabbit, blood, iv, in vivo, 40 min after infusion (50 mg/kg over 2 h), read-out: AP4 A, umol/l blood): 0.05 µmol/L | concentration at 1 h ([2]; rabbit, blood, iv, in vivo, 60 min after infusion (50 mg/kg over 2 h), read-out: AP4 A, umol/l blood): 0.042 µmol/L | time to complete clearance after infusion ([2]; rabbits, after end of infusion): ≤ 10 min | blood content of AP4 A prior to infusion ([2]; rabbits, prior to infusion): 51 nmol/1 blood | blood content of AP4 A: fold lower than the level observed in man ([2]; rabbits, prior to infusion, versus man): 7.3 fold
